# Measured values reported in patent US20220287936A1, “AN ANTIDANDRUFF COMPOSITION” (Conopco, Inc., d/b/a UNILEVER, priority 2019, published 2022).
# Test system: Malassezia furfur 14521
# Experiment: Antifungal activity on M. furfur (resazurin viability assay, MIC and ΣFIC synergy evaluation)
# Type: cell-based
# Details: M. furfur 14521, YPD broth, 30° C., 72 hours, resazurin readout
# Procedure: The samples as given in Table-1 were subjected to their anti fungal efficacy on M. furfur as described hereinafter.
# The test organism used in the assay is Malassezia furfur 14521. The M. furfur were revived from glycerol stock in YPD agar plates (yeast extract peptone dextrose media) containing 1% corn oil. The composition of YPD is yeast extract:10 g/litre, dextrose 20 g/litre, Peptone 20 g/litre and […]. The plates were incubated at 30° C. for 72 hours for forming fungal colonies. A suspension culture of M. furfur was made using the colonies from plates in YPD broth. The optical density of the suspension culture was adjusted to 0.6 using spectrophotometer. This suspension was diluted in the ratio of 1:10 using YPD broth and 100 μl of this culture was added into each well of 96 well test plate. A stock solution of 4× strength of test ingredients (itaconic acid and sodium benzoate) was prepared for each of the concentrations tested eg for 0.125% test concentration of itaconic acid/sodium benzoate a stock of 0.5% was prepared in YPD broth. 50 μl of each of the test ingredient was added to 100 μl of M. furfur culture, making the final volume to 200 μl. In wells containing only one test ingredient, (itaconic acid or sodium benzoate only) 50 μl of test ingredient was added to 100 μl of fungal culture and then made up the volume to 200 μl with YPD broth. The plates were incubated at 30° C. for 72 hours. Post incubation 10 μl of 1% resazurin was added to each well and incubated for 18 hours at 30° C. […] The anti-fungal efficacy of the ingredient or combination of ingredients is calculated based on the colour development.
# The combinations of test ingredients with synergistic anti-fungal benefits were evaluated using ΣFIC method. The ΣFIC of the combinations were calculated using the following formula • ΣFIC of combination A+B=[Concentration of A]/MIC of A+[concentration of B]/MIC of B, where MIC is the Minimum inhibitory concentration (MIC) of ingredient. […]
row,SMILES,MIC (Minimum inhibitory concentration) [wt %]
1,C=C(CC(=O)O)C(=O)O [Itaconic acid],0.25
2,O=C([O-])c1ccccc1.[Na+] [Sodium Benzoate],0.5
3,C=C(CC(=O)OC)C(=O)OC [Dimethyl itaconate],0.5
